Laboratory results: patent US10718028B2, “Fluorescent probes for abasic site detection” (CASE WESTERN RESERVE UIVERSITY, priority 2015, dated 2020)
“Also recorded” adds a separate entry of the source.

Experiments:
[1] = Fluorescence and absorbance properties of Cy7MX in various solvents (Example 1); type: physicochemical
Experimental: NMR spectra were recorded on a Varian Mercury 300 MHz, a Varian Inova 400, and a Varian Inova 600 MHz spectrometer at room temperature, except where otherwise noted. Chemical shifts for 1H NMR were reported as 6, parts per million, and referenced to CHCl3 at 7.26 ppm or TMS at 0 ppm. Chemical shifts for ^13C NMR were reported as 6 and referenced to the center line of the CDCl3 triplet at 77.0 ppm or CH2Cl2 pentet at 54.0 ppm. Low resolution mass spectra were recorded on a ThermoScientific LCQ Advantage or a Finnigan LCQ Deca mass spectrometer. Fluorescence data were collected on a Varian Cary Eclipse fluorescence spectrophotometer in a quartz cuvette with a 1 cm pathlength or on a Tecan Infinite M200 scanner. Absorbance data were collected on a Varian Cary 50 Bio UV-Visible Spectrophotometer in a quartz cuvette with a 1 cm path length.
Fluorescent quantum yields were determined by a comparative method to an indocyanine green (ICG) standard (Φ=0.132 in EtOH) with refractive index correction according to Equation 1:
[formula] • where Φ is the quantum yield; F is the integrated fluorescence intensity (area); A is the absorbance; n is the refractive index of the solvent (ethanol, 1.3611; acetonitrile, 1.3442; water, 1.333; and chloroform, 1.4459); and R is the reference sample, ICG in EtOH. Sample and reference fluorophores were excited at 700 nm and emission spectra integrated from 705 to 1000 nm and absorption measurements were collected at 700 nm. Data were collected in a quartz cuvette with a 1 cm pathlength. Absorbance maxima for each sample were kept at or below 0.2 absorbance units to avoid inner filter effects. Solvents used were spectroscopic grade ethanol and HPLC grade acetonitrile, HPLC grade chloroform, and HPLC grade water. For the water solution, Cy7MX was first dissolved first in MeCN and diluted at least 200 fold. Synthesis of Compounds for AP Site Detection
Further characterization was conducted for Cy7MX (Table 2), Cy7MX, because it was chosen for extensive investigation in biological studies. The absorption and emission spectra were collected in polar protic (water and ethanol), polar aprotic (acetonitrile), and relatively nonpolar (chloroform) solvents. […] The extinction coefficient and the fluorescence quantum yields for Cy7MX compared favorably to other heptamethine cyanine dyes.

[2] = Optical properties of Cy7MX in various solvents (Example 2); type: physicochemical
Excerpt: Fluorescence quantum yield measurements. Fluorescent quantum yields determined by a comparative method to an indocyanine green (ICG) standard (F=0.132 in EtOH) with refractive index correction according to the equation:
[formula] • where F is the quantum yield; m is the slope of the integrated fluorescence intensity as a function of absorbance maxima; n is the refractive index of the solvent (EtOH, 1.3611; MeCN, 1.3442; H2O, 1.333; and CHCl3, 1.4459); and R is the reference sample, ICG in EtOH. Data were collected in a quartz cuvette with a 1 cm path length. Absorbance maxima for each sample were kept at or below 0.2 absorbance units to avoid inner filter effects. Fluorophores were excited at 700 nm and emission spectra integrated from 705 to 1000 nm. Solvents used were spectroscopic grade ethanol and HPLC grade acetonitrile, HPLC grade chloroform, and HPLC grade water. For the water solution, Cy7MX was first dissolved in MeCN and diluted at least 200 fold. SSB Activity Assay General Procedures
The absorption and fluorescence properties of Cy7MX were then evaluated in relatively nonpolar (CHCl3), polar aprotic (MeCN), and polar protic (EtOH and H2O) solvents. […] Likewise, the quantum yields of Cy7MX in these solvents compare favorably with other cyanine dyes (Table 3).

APE = molecular target: T1, APE (Homo sapiens, UniProt P27695); assay: SSB activity assay APE inhibition; type: biochemical
T1 construct: purchased New England BioLabs
Experimental: FIG. 7 illustrates the evaluation of APE inhibition by Cy7MX. […] APE is inhibited about 50% after 3 h incubation. The baseline reduction in cutting is due to competition of APE and Cy7MX for the AP-DNA substrate.
Meanwhile, five samples of each DNA reaction were prepared.
We determined if Cy7MX could inhibit the activity of the enzymes and thereby complicate the results on the assay. While the order of reagent addition in the assay may be structured to avoid enzyme inhibition, Cy7MX is envisioned as an imaging agent in living cells where the enzymes are constantly present. To test the possible inhibition of Cy7MX towards APE, the probe and enzyme were incubated together for a variable period of time then incubated for a fixed period of time with AP DNA (U:A DNA pretreated with UDG). If the two species were only competing for substrate, then the extent of cutting observed would be independent of the APE+Cy7MX incubation time. Conversely, if Cy7MX inhibits the action of APE, then the extent of cutting would vary as a function of APE+Cy7MX incubation time. In either case, some baseline reduction in cutting was expected as Cy7MX and APE competed for substrate. […] However, this effect was only observed after 60 minutes. Thus, the one hour incubation of APE in the cutting assay is not expected to be negatively impacted by the presence of Cy7MX.

T1 sequence (P27695 whole entry): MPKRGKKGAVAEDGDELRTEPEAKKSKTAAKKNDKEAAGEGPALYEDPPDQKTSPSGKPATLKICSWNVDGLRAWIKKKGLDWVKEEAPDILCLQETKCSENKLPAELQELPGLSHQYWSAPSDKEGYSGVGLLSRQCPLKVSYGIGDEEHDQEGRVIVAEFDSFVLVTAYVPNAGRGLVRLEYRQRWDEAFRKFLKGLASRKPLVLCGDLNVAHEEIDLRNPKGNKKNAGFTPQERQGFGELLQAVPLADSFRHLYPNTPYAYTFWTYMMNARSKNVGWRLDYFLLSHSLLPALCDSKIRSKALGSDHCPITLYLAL

CCCN1/C(=C/C=C2\CCCC(/C=C/C3=[N+](CCC)c4ccccc4C3(C)C)=C2Oc2ccc(CC(=O)NCCCON)cc2)C(C)(C)c2ccccc21 [Cy7MX, 2-((E)-2-((E)-2-(4-(2-((3-(aminooxy)propyl)amino)-2-oxoethyl)phenoxy)-3-((E)-2-(3,3-dimethyl-1-propylindolin-2-ylidene)ethylidene)cyclohex-1-en-1-yl)vinyl)-3,3-dimethyl-1-propyl-3H-indol-1-ium 2,2,2-trifluoroacetate]
Φ ([1]; CHCl3): 32.6%
λabs ([1]; CHCl3): 770 nm
λem ([1]; CHCl3): 791 nm
Φ ([1]; EtOH): 36.3%
ε ([1]; EtOH): 127,000 M^−1cm^−1
λabs ([1]; EtOH): 770 nm
λem ([1]; EtOH): 796 nm
Φ ([1]; H2O): 6.3%
ε ([1]; H2O): 140,000 M^−1cm^−1
λabs ([1]; H2O): 767 nm
λem ([1]; H2O): 790 nm
Φ ([1]; MeCN): 45.9%
ε ([1]; MeCN): 154,000 M^−1cm^−1
λabs ([1]; MeCN): 767 nm
λem ([1]; MeCN): 789 nm
solvatochromism ([1]; water, ethanol, acetonitrile, chloroform): No solvatochromism was observed
Φ ([2]; CHCl3): 38.2%
λabs ([2]; CHCl3): 770 nm
λem ([2]; CHCl3): 791 nm
absorption maximum ([2]; CHCl3, MeCN, EtOH and H2O): ~770 nm
emission maximum ([2]; CHCl3, MeCN, EtOH and H2O): ~790 nm
solvatochromic shifts ([2]; CHCl3, MeCN, EtOH and H2O): No solvatochromic shifts were observed
Φ ([2]; EtOH): 39.3%
ε ([2]; EtOH): 127,000 M−1cm−1
λabs ([2]; EtOH): 770 nm
λem ([2]; EtOH): 796 nm
Φ ([2]; H2O): 6.6%
ε ([2]; H2O): 140,000 M−1cm−1
λabs ([2]; H2O): 767 nm
λem ([2]; H2O): 790 nm
Φ ([2]; MeCN): 48.7%
ε ([2]; MeCN): 154,000 M−1cm−1
λabs ([2]; MeCN): 767 nm
λem ([2]; MeCN): 789 nm
APE inhibition (APE; 60 min APE incubation): no detectable inhibition
APE inhibition (APE; APE and Cy7MX incubated together before addition of AP-DNA, variable time, 2,2,2-trifluoroacetate): did have inhibitory effects on APE; also recorded: mild inhibition
APE inhibition (APE; after 3 h incubation of APE with Cy7MX): about 50%
APE inhibition (APE; tetrahydrofuran (THF) base in place of the AP site): moderate inhibition of APE
